From US11891405B2, “Furo[3,4-b]pyrrole-containing BTK inhibitor” (CHIA TAI TIANQING PHARMACEUTICAL GROUP CO., LTD., priority 2018, dated 2024)
Where two headings read alike, the source gives them in different places.

Legend:
[1] = Rat liver microsome metabolic stability; assay type: in vitro ADME; conditions: rat liver microsomes
Method: 3.3 Rat Liver Microsome Assay
(§1) 300 μL of final incubation system: 30 μL of rat liver microsomes (protein concentration: 5 mg/mL, XENOTECH, USA), 30 μL of NADPH (10 mM)+MgCl2 (5 mM), 3 μL of the substrate, i.e., the example compound (dissolved in 50% aqueous acetonitrile solution, 100 μM), and 237 μL of PBS buffer, wherein the proportion of the organic solvent (acetonitrile) was 0.5%. Each tube was added with 270 μL of a mixed solution of substrate and enzyme, and after being pre-incubated at 37° C. for 5 min, added with 30 μL of NADPH+MgCl2. Then 50 μL of the mixture was taken at 0 min, 15 min, 30 min and 60 min, and added with 300 μL of diazepam glacial acetonitrile (20 ng/mL) containing an internal standard to quench the reaction. The reaction mixture was vortexed for 5 min, and centrifuged (13,000 rpm, 4° C.) for 10 min. 100 μL of supernatant was pipetted into a sample vial, from which 1 μL of supernatant was injected and analyzed by LC-MS/MS, and the remaining percentage was calculated.

[2] = Human liver microsome metabolic stability; assay type: in vitro ADME; conditions: human liver microsomes
Method: 3.1 Human Liver Microsome Assay
as §1, with “of human” for “of rat”, “the residual” for “the remaining”

OCI-LY10 cells = assay: In vivo pharmacodynamic study, OCI-LY10 xenograft; parameters: species or system NOD-SCID mice; conditions: for TGI (%): tumor growth inhibition from tumor weight, 23 days; for TGI (%) / d0 TV Mean ± SD: 50 mg/kg bid i.g.; for d0 TV Mean ± SD: tumor volume at day 0 (grouping); for d21 TV Mean ± SD: tumor volume at day 21, 50 mg/kg bid i.g.; for d23 TV Mean ± SD: tumor volume at day 23, 50 mg/kg bid i.g.
Method: EXPERIMENTAL EXAMPLE 5: IN VIVO PHARMACODYNAMIC STUDY
OCI-LY10 cells were subcutaneously grafted (concentration: 1×10^8/mL×0.1 mL/mice) in NOD-SCID mice at the right side armpit (the inoculated site was shaved upon grafting) under aseptic conditions. After subcutaneous grafting, the animals were grouped when the tumor volume reached about 100-300 mm^3:
Model group: vehicle: 6 mice; I-1: 6 mice, 50 mg/kg, bid, i.g.; I-3: 6 mice, 50 mg/kg, bid, i.g.
The vehicle or compound was administered by intragastric administration at a volume of 10 mL/kg, twice daily, for 23 days. The tumor volume was measured 2-3 times per week, and the mice were weighed at the same time, with the data recorded. Animal behavior was observed daily. After all administration was completed, the animals were executed, stripped of tumors and weighed.
The tumor volume and the tumor growth inhibition were calculated using the following formulas: Tumor volume(TV)=(Length×Width^2)/2. Tumor growth inhibition(TGI)=(1−tumor weight in treatment group/tumor weight in model group)×100%.

[3] = In vivo pharmacokinetic assay on mouse; conditions: ICR mice; for MRT last: read-out: MRT(0-t)
Method: EXPERIMENTAL EXAMPLE 4: IN VIVO PHARMACOKINETIC ASSAY ON MOUSE
ICR mice weighing 18-22 g were randomly grouped into 9 mice in each group after being fed for 3-5 days, and administered intragastrically with related compound at a dose of 10 mg/kg, and injected intravenously with the test compound at a dose of 1 mg/kg, respectively. The test animals (ICR mice) were fasted for 12 h before administration and fed for 4 h after administration, and water was freely drunk before and after the experiment and during the experiment. After intragastric administration, 0.1 mL of the blood at the orbit was collected at 0.25 h (15 min), 0.5 h (30 min), 1 h, 2 h, 4 h, 6 h, 8 h, 10 h and 24 h, and after intravenous injection, 0.1 mL of the blood at the orbit was collected at 0.083 h (5 min), 0.167 h (10 min), 0.5 h (30 min), 1 h, 2 h, 6 h, 8 h, 10 h and 24 h. Each mouse was sampled at 3-4 time points, and 3 mice were sampled at each time point. Whole blood was collected and placed in centrifuge tubes containing EDTA-K2 and sodium fluoride, then transferred to a 4° C. centrifuge within 30 min and centrifuged at 4000 rpm for 10 min to separate the plasma. All plasma was collected and immediately stored at −20° C. for testing. 20 μL of a plasma test sample and a standard curve sample were pipetted into 300 μL of acetonitrile solution containing an internal standard (diazepam […]), and the mixture was shaken and mixed for 5 min, and centrifuged at 13,000 rpm for 10 min. 80 μL of supernatant was diluted with 80 μL of ultrapure water, and the mixture was mixed well, form which 1 μL of the sample was pipetted and analyzed by LC/MS/MS, and a chromatogram was recorded. Oral and intravenous exposure of the compounds disclosed herein was evaluated by pharmacokinetic experiments in mice and the results are shown in Table 4.

Row | Rat (RLM) Remaining % (T = 60 min) [1] [%] | Human (HLM) Remaining % (T = 60 min) [2] [%] | t1/2z ([3]; ig 10 mg/kg) [min] | CLz ([3]; iv 1 mg/kg) [mL/min/kg] | t1/2z ([3]; iv 1 mg/kg) [min] | bioavailability ([3]; mouse, plasma, oral, ig 10 mg/kg vs iv 1 mg/kg, read-out: Absolute bioavailability F %) [%] | AUC(0-inf) ([3]; mouse, plasma, po, ig 10 mg/kg) [ng·h/mL] | AUC(0-t) ([3]; mouse, plasma, po, ig 10 mg/kg) [ng·h/mL] | Cmax ([3]; mouse, plasma, po, ig 10 mg/kg) [ng/mL] | Tmax ([3]; mouse, plasma, po, ig 10 mg/kg) [min] | MRT last ([3]; mouse, plasma, po, ig 10 mg/kg) [min] | AUC(0-inf) ([3]; mouse, plasma, iv 1 mg/kg) [ng·h/mL] | AUC(0-t) ([3]; mouse, plasma, iv 1 mg/kg) [ng·h/mL] | MRT last ([3]; mouse, plasma, iv 1 mg/kg) [min] | Vd ([3]; mouse, plasma, iv 1 mg/kg, read-out: Vz) [L/kg] | Compound | TGI (%) (OCI-LY10 cells) | d0 TV Mean ± SD (OCI-LY10 cells) [mm^3] | d21 TV Mean ± SD (OCI-LY10 cells) [mm^3] | d23 TV Mean ± SD (OCI-LY10 cells) [mm^3]
1 | 26 | 15 |  |  |  |  |  |  |  |  |  |  |  |  |  | CC#CC(=O)N1[C@@H]2COC[C@@H]2C[C@H]1c1nc(-c2ccc(C(=O)Nc3cc(C(F)(F)F)ccn3)cc2F)c2c(N)nccn12 [Compound I-4, 4-(8-AMINO-3-((2S,3AR,6AS)-1-(BUT-2-YNOYL)HEXAHYDRO-1H-FURO[3,4-B]PYRROL-2-YL)IMIDAZO[1,5-A]PYRAZIN-1-YL)-3-FLUORO-N-(4-(TRIFLUOROMETHYL)PYRIDIN-2-YL)BENZAMIDE] |  |  |  | 
2 | 33.9 | 29.9 |  |  |  |  |  |  |  |  |  |  |  |  |  | Nc1nccn2c([C@@H]3C[C@H]4COC[C@H]4N3C(=O)C3CC3)nc(-c3ccc(C(=O)Nc4cc(C(F)(F)F)ccn4)cc3F)c12 [Compound I-7, 4-(8-AMINO-3-((2S,3AR,6AS)-1-(CYCLOPROPANECARBONYL)HEXAHYDRO-1H-FURO[3,4-B]PYRROL-2-YL)IMIDAZO[1,5-A]PYRAZIN-1-YL)-3-FLUORO-N-(4-(TRIFLUOROMETHYL)PYRIDIN-2-YL)BENZAMIDE] |  |  |  | 
3 | 42 | 74 |  |  |  |  |  |  |  |  |  |  |  |  |  | C=CC(=O)N1[C@@H]2COC[C@@H]2C[C@H]1c1nc(-c2ccc(C(=O)Nc3ccccn3)cc2)c2c(N)nccn12 [Compound I-3, 4-(3-((2S,3AR,6AS)-1-ACRYLOYLHEXAHYDRO-1H-FURO[3,4-B]PYRROL-2-YL)-8-AMINOIMIDAZO [1,5-A]PYRAZIN-1-YL)-N-(PYRIDIN-2-YL)BENZAMIDE] | 84.1 | 177 ± 16 | 645 ± 202 | 647 ± 343
4 | 30 | 89 | 142 | 340 | 43.8 | 72.4 | 315 | 315 | 92.7 | 15 | 184 | 43.6 | 43.6 | 31.2 | 21.5 | CC#CC(=O)N1[C@@H]2COC[C@@H]2C[C@H]1c1nc(-c2ccc(C(=O)Nc3ccccn3)cc2)c2c(N)nccn12 [Compound I-1, 4-(8-amino-3-((2S,3aR,6aS)-1-(but-2-ynoyl)hexahydro-1H-furo[3,4-b]pyrrol-2-yl)imidazo [1,5-a]pyrazin-1-yl)-N-(pyridin-2-yl)benzamide] | 79.4 | 176 ± 35 | 742 ± 109 | 847 ± 189
